Data reported in patent publication US11203582B2, “Benzamide derivatives for inhibiting endoplasmic reticulum (ER) stress” (The Board of Regents of the University of Oklahoma, priority 2017, dated 2021).

Legend:
Assay type in all cases: cell-based, rat
XBP1s mRNA = XBP1s mRNA (qRT-PCR and RT-PCR with gel electrophoresis) in Tm-treated INS-1 cells; conditions: Tm 0.1 μg/mL co-treatment, 8 h
Description: INS-1 cells were treated with or without Tm (0.1 μg/mL) in the presence of 13d or DMSO for 8 h. (A) XBP1s mRNA levels were analyzed by qRT-PCR. Relative mRNA levels were normalized against the housekeeping gene Cyclophilin A using the comparative CT method. ** P<0.01 compared with Tm treatment alone. Bars indicate SD. (B) XBP1 mRNA levels were analyzed by RT-PCR and the products were resolved by agarose gel electrophoresis. The full-length (unspliced, XBP1u) and spliced (XBP1s) forms of XBP1 mRNA are indicated. Cyclophilin A mRNA was used as a loading control. Quantification was analyzed by ImageJ program shown at the bottom. The data shown are representative of 3 independent experiments.
Next, we determined the effect of 13d on the activation of IRE1α in β-cells under ER stress. […] We therefore used XBP1 splicing as a marker for the activation of the IRE1α pathway and determined the effect of 13d on IRE1α-mediated XBP1 splicing in INS-1 cells in the presence of Tm.
(§1) INS-1 cells were seeded at 4×10^5 cells/well in 6-well plates and treated with compounds for the indicated times. […] Relative mRNA levels were normalized against the housekeeping gene Cyclophilin A and were determined by ΔΔCt calculated from the difference in ΔCt values between the target gene and Cyclophilin A with and without treatment, based on comparative CT (cycle threshold) method. […]

GRP94 mRNA = experiment: qRT-PCR of GRP94 mRNA in Tm-treated INS-1 cells; conditions: Tm 0.1 μg/mL co-treatment, 8 h
Description: (§2) INS-1 cells were treated with or without Tm (0.1 μg/mL) in the presence of 13d or DMSO for 8 h. Bip (A) and GRP94 (B) mRNA levels were analyzed by qRT-PCR. Relative mRNA levels were normalized against the housekeeping gene Cyclophilin A using the comparative CT method. The results are the means of 3 replicate wells and representative of 3 independent experiments. ** P<0.01 compared with Tm treatment alone. Error bars indicate SD.
(§3) We then investigated the effects of 13d on the activation of ATF6 in β-cells under ER stress. Activated ATF6 acts as a homodimer or as an ATF6-XBP1s heterodimer to control the up-regulation of select UPR target genes including the chaperone proteins BiP and GRP94. Therefore, these two chaperone proteins were evaluated in the INS-1 cells in the presence of Tm.
as §1, with “times. Total RNA was extracted using TRIzol reagent (Invitrogen, Carlsbad, Calif.) according to the manufacturer's protocol, and 2 μg of total RNA was reverse transcribed using a Superscript kit (Invitrogen).” for “times.”

INS-1 cells = experiment: TUNEL staining of Tm-treated INS-1 cells; conditions: co-treatment with Tm, 24 h
Description: (A) INS-1 cells were treated with or without Tm (0.1 m/mL) in the presence of 13d at indicated concentrations or DMSO for 24 h. Cleaved caspase-3 and PARP were determined by Western blotting. α-Tubulin was used as a loading control. The data shown are representative of 3 independent experiments. (B) INS-1 cells were treated with or without Tm (0.1 m/mL) in the presence of 13d (0.111M) or DMSO for 48 h, and live-cell phase-contrast images were acquired (magnification 10×). The images shown are representative of 3 independent experiments. (C) TUNEL staining of INS-1 cells. INS-1 cells were treated with 0.111 g/mL of Tm with or without compound 13d for 24 h before TUNEL staining. DAPI was used as a nuclear marker. Magnification is 20×. The images shown are representative of 3 independent experiments. (D) Quantification of TUNEL staining from 20 fields of images. ** P<0.01 compared with Tm treatment alone.
To determine whether the increase in β-cell viability following treatment with 13d is caused by a suppression of apoptotic cell death, several apoptosis-related makers were measured. First, levels of cleaved caspase-3 and cleaved PARP were assayed by Western blotting. […]

Bip mRNA = experiment: qRT-PCR of Bip mRNA in Tm-treated INS-1 cells; conditions: Tm 0.1 μg/mL co-treatment, 8 h
Description: as §2, §3
as §1, with “times. Total RNA was extracted using TRIzol reagent (Invitrogen, Carlsbad, Calif.) according to the manufacturer's protocol, and 2 μg of total RNA was reverse transcribed using a Superscript kit (Invitrogen).” for “times.”

O=C(NCc1ccc(C(F)(F)F)cc1)c1cccc(CN2CCCCC2)c1 [Compound 13d, N-(4-trifluoromethylphenmethyl)-3-(N-piperidinyl)methyl benzamide]
Tm-induced increase in XBP1s mRNA level (qRT-PCR) (XBP1s mRNA): abolished | Tm-induced generation of XBP1s mRNA (RT-PCR, electrophoretic separation) (XBP1s mRNA; FIG. 6B): inhibits | Tm-induced up-regulation of GRP94 mRNA (GRP94 mRNA): almost completely reversed | TUNEL-positive cells (INS-1 cells): 0.5% | Tm-induced up-regulation of Bip mRNA (Bip mRNA): almost completely reversed
